# Measurements: patent publication US11291719B2, “Methods and compositions for modulating Akt3” (Augusta University Research Institute, Inc., priority 2016, dated 2022)
# System: experimental autoimmune encephalomyelitis (EAE)
# Experiment: Experimental autoimmune encephalomyelitis (EAE) model
# Format: in vivo, mouse
# From the text: FIG. 24A is a schematic illustration of induction of experimental autoimmune encephalomyelitis (EAE) model. FIG. 24B is a chart showing the grading criterion for scoring severity of EAE. FIG. 24C is a line graph showing EAE score over time (days post EAE induction) for control (●), iTreg (blue circle), and mJJ64A-10 (▾) treated mice. The X-axis represents time (days) and the Y-axis represents EAE score. FIG. 24D is a line graph showing percent survival over time (days) for untreated (•), iTreg treated (●), and mJJ64A-10 treated (▾) mice. The X-axis represents time (days) and the Y-axis represents percent survival. FIG. 24E is a line graph representing EAE score over time (days post EAE induction) for control (●), iTreg (♦), mJJ64A-3 (blue circle), mJJ64A-6 (▾), and mJJ64A-10 (▴) treated EAE mice. The X-axis represents time (days post EAE induction) and the Y-axis represents EAE score. FIG. 24F is a line graph representing percent survival over time (days) for untreated (•), iTreg (blue circle), mJJ64A-3 (▾), mJJ64A-6 (▴), and mJJ64A-10 (♦) treated EAE mice. The X-axis represents time (days) and the Y-axis represents percent survival.
smiles,measurement,setting,value
N#Cc1ccc2nccc(Nc3ccc(C(=O)Nc4ccc(Nc5ccncc5)cc4)cc3)c2c1 [Compound 2],disease progression in EAE model,EAE score,reduced
same,survival rate in EAE model,"mouse, in vivo",increased
